This assay deals with M. tuberculosis PE-003 multidrug-resistant clinical isolate. Nature of the assay: microbe, parasite or virus in culture. It is filed as cell-based. Conditions: Mycobacterium tuberculosis, read-out: MIC PE-003 in μM.

Converted amounts (≈) assume the structure as drawn.

On to `Cc1ccccc1OCc1nc(-c2ccc(NC(=O)c3cccs3)cc2)no1` [Labio_16], for which the MIC stood at 1.5 µM (≈ 0.587 µg/mL).

As for `CCOC(=O)c1ccc2nc(C)cc(Nc3ccc(N4CCCCC4)cc3)c2c1` [Labio_17], the MIC was 2.5 µM (≈ 0.974 µg/mL).

The record behind these values is paper PMC5402281, “Functional, thermodynamics, structural and biological studies of in silico-identified inhibitors of Mycobacterium tuberculosis enoyl-ACP(CoA) reductase enzyme” (Scientific Reports, 2017).
